How the values were obtained:
OXA-48 = target: T1, OXA-48 (Klebsiella pneumoniae, UniProt Q6XEC0); experiment: β-lactamase inhibitory activity, determination of IC50 (nitrocefin hydrolysis); type: biochemical; settings: class (D); nitrocefin 200 μM, 30 min pre-incubation; read-out: IC50 β-lactamase OXA-48
T1 construct: made in house; host or cells: E. coli

AmpC P. aeruginosa = AmpC P. aeruginosa (Pseudomonas aeruginosa, UniProt P24735); experiment: as above
AmpC (P99) = AmpC (P99) (Enterobacter cloacae, UniProt P05364); experiment: as above
[1] = system: E. coli 131119 (TEM-1, OXA-48); experiment: MIC of compounds alone, broth microdilution; type: cell-based; settings: Escherichia coli; strain 131119 (E. coli); read-out: MIC compounds of the invention alone
Procedure: (§1) Method 2: MIC of Compounds and Synergy with Ceftazidime Against Bacterial Isolates (Table 2 and 3)
(§2) Compounds of the present invention were assessed against genotyped bacterial strains alone or in combination with the β-lactam ceftazidime (CAZ). In the assays, MICs of said compounds, or of ceftazidime at fixed concentrations of said compounds were determined by the broth microdilution method according to the Clinical Laboratory Standards Institute (CLSI-M7-A7). Briefly, compounds alone according to the invention were prepared in DMSO and spotted (2 μL each) on sterile polystyrene plates (Corning, 3788). Compounds and ceftazidime dilutions were prepared in DMSO and spotted (1 μL each) on sterile polystyrene plates (Corning, 3788). Log phase bacterial suspensions were adjusted to a final density of 5×10^5 cfu/mL in cation-adjusted Mueller-Hinton broth (Becton-Dickinson) and added to each well (98 μL). Microplates were incubated for 16-20 h at 35° C. in ambient air. The MIC of the compounds was defined as the lowest concentration of said compounds that prevented bacterial growth as read by visual inspection. The MIC of ceftazidime at each compound concentration was defined as the lowest concentration of ceftazidime that prevented bacterial growth as read by visual inspection.

[2] = system: K. pneumoniae BAA-1898 (TEM-1, SHV-11, SHV-12, KPC-2); experiment: MIC of compounds alone, broth microdilution; type: cell-based; settings: Klebsiella pneumoniae, BAA1898; strain BAA-1898 (K. pneumoniae); read-out: MIC compounds of the invention alone
Procedure: as §1, §2

[3] = system: K. pneumoniae 6299 (TEM-1, SHV-11, OXA-163); experiment: MIC of compounds alone, broth microdilution; type: cell-based; settings: Klebsiella pneumoniae; strain 6299 (K. pneumoniae); read-out: MIC compounds of the invention alone
Procedure: as §1, §2

E. coli RGN238 (OXA-1) = experiment: MIC of compounds alone, broth microdilution; type: cell-based; settings: Escherichia coli; strain RGN238 (E. coli); read-out: MIC compounds of the invention alone
Procedure: as §1, §2

E. cloacae P99 (AmpC) = experiment: MIC of compounds alone, broth microdilution; type: cell-based; settings: Enterobacter cloacae; strain P99 (E. cloacae); read-out: MIC compounds of the invention alone
Procedure: as §1, §2

[4] = system: P. aeruginosa CIP107051 (TEM-24); experiment: MIC of compounds alone, broth microdilution; type: cell-based; settings: Pseudomonas aeruginosa; strain CIP107051 (P. aeruginosa); read-out: MIC compounds of the invention alone
Procedure: as §1, §2

SHV-1 = target: T2, SHV-1 (Klebsiella pneumoniae, UniProt P0AD64); experiment: β-lactamase inhibitory activity, determination of IC50 (nitrocefin hydrolysis); type: biochemical
T2 construct: made in house; host or cells: E. coli

OXA-11 = target: T3, OXA-11 (Pseudomonas aeruginosa, UniProt Q06778); experiment: as above; type: biochemical
T3 construct: made in house; host or cells: E. coli

KPC-2 = target: T4, KPC-2 (Klebsiella pneumoniae, UniProt Q9F663); experiment: as above; type: biochemical; settings: class (A); nitrocefin 200 μM, 30 min pre-incubation; read-out: IC50 β-lactamase KPC-2
T4 construct: made in house; host or cells: E. coli

CTX-M-15 = target: T5, CTX-M-15 (Escherichia coli, UniProt Q9EXV5); experiment: as above; type: biochemical; settings: class (A); nitrocefin 200 μM, 30 min pre-incubation; read-out: IC50 β-lactamase CTX-M-15
T5 construct: made in house; host or cells: E. coli

OXA-1 = target: T6, OXA-1 (Escherichia coli, UniProt P13661); experiment: as above; type: biochemical; settings: class (D); nitrocefin 200 μM, 30 min pre-incubation; read-out: IC50 β-lactamase OXA-1
T6 construct: made in house; host or cells: E. coli

TEM-1 = target: T7, TEM-1 (Escherichia coli, UniProt P62593); experiment: as above; type: biochemical
T7 construct: made in house; host or cells: E. coli

OXA-15 = target: T8, OXA-15 (Pseudomonas aeruginosa, UniProt Q51574); experiment: biochemical
T8 construct: made in house; host or cells: E. coli
T8 sequence (Q51574 22-275): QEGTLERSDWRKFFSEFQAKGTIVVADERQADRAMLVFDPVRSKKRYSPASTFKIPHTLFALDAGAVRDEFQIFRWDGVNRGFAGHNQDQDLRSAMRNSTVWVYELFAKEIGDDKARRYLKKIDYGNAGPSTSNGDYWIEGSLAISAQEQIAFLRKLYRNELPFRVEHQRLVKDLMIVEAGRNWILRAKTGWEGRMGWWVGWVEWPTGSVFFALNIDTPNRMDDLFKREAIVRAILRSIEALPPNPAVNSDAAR

T1 sequence (Q6XEC0 23-265 limits assumed): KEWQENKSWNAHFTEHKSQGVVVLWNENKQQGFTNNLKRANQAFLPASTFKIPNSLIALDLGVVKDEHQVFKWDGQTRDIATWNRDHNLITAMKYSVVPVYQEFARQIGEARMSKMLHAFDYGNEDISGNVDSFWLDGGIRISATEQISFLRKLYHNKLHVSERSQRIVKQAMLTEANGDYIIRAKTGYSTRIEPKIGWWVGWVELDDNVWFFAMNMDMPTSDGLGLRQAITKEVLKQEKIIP
Sequence of AmpC (P99) (P05364 21-381): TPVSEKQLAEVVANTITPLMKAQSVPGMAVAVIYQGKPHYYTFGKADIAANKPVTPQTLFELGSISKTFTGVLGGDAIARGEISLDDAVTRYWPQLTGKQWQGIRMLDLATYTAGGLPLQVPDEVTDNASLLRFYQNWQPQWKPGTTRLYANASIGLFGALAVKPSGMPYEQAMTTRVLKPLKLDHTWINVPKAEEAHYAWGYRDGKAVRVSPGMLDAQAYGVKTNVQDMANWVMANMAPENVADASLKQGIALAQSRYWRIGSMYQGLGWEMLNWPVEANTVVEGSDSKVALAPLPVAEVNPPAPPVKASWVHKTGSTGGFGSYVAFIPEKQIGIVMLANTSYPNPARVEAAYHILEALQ
Sequence of AmpC P. aeruginosa (P24735 27-397): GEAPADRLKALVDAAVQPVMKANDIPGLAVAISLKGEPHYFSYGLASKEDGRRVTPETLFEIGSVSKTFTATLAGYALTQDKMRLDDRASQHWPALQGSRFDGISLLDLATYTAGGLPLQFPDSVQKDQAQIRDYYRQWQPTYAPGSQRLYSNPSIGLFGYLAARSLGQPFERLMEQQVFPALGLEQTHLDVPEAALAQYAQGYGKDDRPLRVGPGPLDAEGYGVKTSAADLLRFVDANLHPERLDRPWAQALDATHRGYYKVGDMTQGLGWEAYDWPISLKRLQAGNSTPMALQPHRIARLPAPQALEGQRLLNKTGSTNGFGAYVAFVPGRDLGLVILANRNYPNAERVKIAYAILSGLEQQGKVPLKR
T6 sequence (P13661 26-276): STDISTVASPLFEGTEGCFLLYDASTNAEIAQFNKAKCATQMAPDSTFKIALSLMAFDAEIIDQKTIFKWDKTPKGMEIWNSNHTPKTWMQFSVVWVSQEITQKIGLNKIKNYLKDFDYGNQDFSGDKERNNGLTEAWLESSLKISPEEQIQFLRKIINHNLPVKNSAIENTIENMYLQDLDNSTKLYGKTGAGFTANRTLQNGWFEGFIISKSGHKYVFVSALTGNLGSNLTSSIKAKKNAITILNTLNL
T4 sequence (Q9F663 25-293 limits assumed): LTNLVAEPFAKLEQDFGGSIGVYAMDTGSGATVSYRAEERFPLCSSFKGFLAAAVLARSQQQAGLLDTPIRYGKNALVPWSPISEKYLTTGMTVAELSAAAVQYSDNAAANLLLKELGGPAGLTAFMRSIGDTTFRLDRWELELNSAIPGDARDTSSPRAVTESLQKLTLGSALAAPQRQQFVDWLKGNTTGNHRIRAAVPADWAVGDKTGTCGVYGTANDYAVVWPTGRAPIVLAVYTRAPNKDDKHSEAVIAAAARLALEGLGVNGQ
T7 sequence (P62593 24-286 limits assumed): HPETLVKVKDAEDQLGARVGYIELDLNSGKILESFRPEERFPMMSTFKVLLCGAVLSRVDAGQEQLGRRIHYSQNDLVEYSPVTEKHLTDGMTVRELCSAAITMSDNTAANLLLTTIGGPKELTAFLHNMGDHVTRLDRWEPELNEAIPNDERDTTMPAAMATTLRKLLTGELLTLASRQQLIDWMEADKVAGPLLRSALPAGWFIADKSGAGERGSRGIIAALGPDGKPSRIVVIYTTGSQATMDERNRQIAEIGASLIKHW
T5 sequence (Q9EXV5 entry or part of it): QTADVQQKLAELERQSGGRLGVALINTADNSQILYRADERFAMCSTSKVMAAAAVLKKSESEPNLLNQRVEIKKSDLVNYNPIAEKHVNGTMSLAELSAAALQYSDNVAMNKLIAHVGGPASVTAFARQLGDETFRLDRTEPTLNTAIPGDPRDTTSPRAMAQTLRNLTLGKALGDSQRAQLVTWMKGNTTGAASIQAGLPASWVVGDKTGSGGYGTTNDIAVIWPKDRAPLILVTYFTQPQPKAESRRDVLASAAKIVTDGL
T2 sequence (P0AD64 22-286): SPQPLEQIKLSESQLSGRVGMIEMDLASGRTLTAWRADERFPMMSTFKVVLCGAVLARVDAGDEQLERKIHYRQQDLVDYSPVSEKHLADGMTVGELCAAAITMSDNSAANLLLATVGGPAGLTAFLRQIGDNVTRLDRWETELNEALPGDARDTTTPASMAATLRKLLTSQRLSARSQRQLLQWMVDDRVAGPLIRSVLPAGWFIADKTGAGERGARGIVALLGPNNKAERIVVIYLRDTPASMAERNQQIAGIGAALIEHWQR
T3 sequence (Q06778 21-266): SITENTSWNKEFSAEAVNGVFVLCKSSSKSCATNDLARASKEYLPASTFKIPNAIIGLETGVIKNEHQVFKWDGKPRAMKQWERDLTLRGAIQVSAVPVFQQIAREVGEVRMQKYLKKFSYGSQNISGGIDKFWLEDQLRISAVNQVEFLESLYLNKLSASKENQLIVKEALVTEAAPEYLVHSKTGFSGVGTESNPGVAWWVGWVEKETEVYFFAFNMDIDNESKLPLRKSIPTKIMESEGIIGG

SMILES | IC50 (OXA-48) | IC50 (AmpC P. aeruginosa) | IC50 (AmpC (P99)) | MIC [1] | MIC [2] | MIC [3] | MIC (E. coli RGN238 (OXA-1)) | MIC (E. cloacae P99 (AmpC)) | MIC [4] | IC50 (SHV-1) | IC50 (OXA-11) | IC50 (KPC-2) | IC50 (CTX-M-15) | IC50 (OXA-1) | IC50 (TEM-1) | IC50 (OXA-15)
O=C1N2CC=C(c3cccnc3)C(C2)N1OS(=O)(=O)[O-].[Na+] (stereo not drawn) [Example 9, Sodium [4-(3-pyridyl)-7-oxo-1,6-diazabicyclo[3.2.1]oct-3-en-6-yl]sulfate] | 1.4 nM | 810 nM | 770 nM | 16 µg/mL | > 32 µg/mL | > 32 µg/mL | > 32 µg/mL | > 32 µg/mL | > 32 µg/mL | 11 nM | 730 nM | 68 nM | 4.8 nM | 130 nM | 3.8 nM | 52 nM
Cn1ccc(C2=CCN3CC2N(OS(=O)(=O)[O-])C3=O)cc1=O.[Na+] (stereo not drawn) [Example 13, Sodium [4-(1-methyl-2-oxo-4-pyridyl)-7-oxo-1,6-diazabicyclo[3.2.1]oct-3-en-6-yl] sulfate] | 2.3 nM | 3200 nM | 2800 nM | 8 µg/mL | > 32 µg/mL | > 32 µg/mL | > 32 µg/mL | 16 µg/mL | > 32 µg/mL | 8.8 nM | 730 nM | 63 nM | 6 nM | 820 nM | 6.1 nM | 230 nM
Cn1cc(C2=CCN3CC2N(OS(=O)(=O)[O-])C3=O)ncc1=O.[Na+] (stereo not drawn) [Example 14, Sodium [4-(4-methyl-5-oxo-pyrazin-2-yl)-7-oxo-1,6-diazabicyclo[3.2.1]oct-3-en-6-yl] sulfate] | 1.4 nM | 1900 nM | 890 nM | 8 µg/mL | > 32 µg/mL | > 32 µg/mL | > 32 µg/mL | 8 µg/mL | > 32 µg/mL | 2.9 nM | 920 nM | 52 nM | 2.7 nM | 730 nM | 1.6 nM | 33 nM
O=C1N2CC(c3cnoc3)=CC(C2)N1OS(=O)(=O)[O-].[Na+] (stereo not drawn) [Example 26, sodium [3-(isoxazol-4-yl)-7-oxo-1,6-diazabicyclo[3.2.1]oct-3-en-6-yl] sulfate] | 6.6 nM | 74 nM | 51 nM | 2 µg/mL | 8 µg/mL | 8 µg/mL | 4 µg/mL | 8 µg/mL | > 32 µg/mL | 13 nM | 140 nM | 4.2 nM | 5.7 nM | 370 nM | 4.8 nM | 210 nM
O=C1N2CC=C(c3ccns3)C(C2)N1OS(=O)(=O)[O-].[Na+] (stereo not drawn) [Example 30, Sodium [4-(isothiazol-5-yl)-7-oxo-1,6-diazabicyclo[3.2.1]oct-3-en-6-yl] sulfate] | 2.5 nM | 780 nM | 200 nM | 4 µg/mL | > 32 µg/mL | > 32 µg/mL | > 32 µg/mL | 8 µg/mL | > 32 µg/mL | 15 nM | 720 nM | 63 nM | 1.8 nM | 150 nM | 5.2 nM | 23 nM
O=C1N2CC(n3ccnc3)=CC(C2)N1OS(=O)(=O)[O-].[Na+] (stereo not drawn) [Example 34, Sodium [3-imidazol-1-yl-7-oxo-1,6-diazabicyclo[3.2.1]oct-3-en-6-yl]sulfate] | 220 nM | 500 nM | 59 nM | 8 µg/mL | 16 µg/mL | 32 µg/mL | 16 µg/mL | 8 µg/mL | > 32 µg/mL | 21 nM | 650 nM | 24 nM | 2.7 nM | 410 nM | 7.2 nM | 220 nM

Source: US10183943B2, “Heterocyclic compounds and their use in preventing or treating bacterial infections” (MUTABILIS, priority 2015, dated 2019)
